Key:
mice = type: in vivo, mice (Swiss Webster)
murine sEH = settings: read-out: IC50 for murine sEH; cited from earlier work
[1] = cited from earlier work
[2] = tested on: soluble epoxide hydrolase (sEH); settings: mice treated with DZP 10 mg/kg and TPPU 3 mg/kg
[3] = TPPU quantification in plasma and brain by LC/MS/MS; type: in vivo, mice
[4] = DZP quantification in plasma and brain by LC/MS; type: in vivo, mice; settings: TPPU 3 mg/kg i.p., DZP 10 mg/kg
[5] = midazolam 1.8 and 10 mg/kg intramuscular
[6] = 50 min after TPPU 3 mg/kg i.p. (5 min after DZP)
[7] = 105 min after TPPU 3 mg/kg i.p. (1 h after DZP)

Cc1ncc2n1-c1ccc(Cl)cc1C(c1ccccc1F)=NC2 [midazolam]
Hypotensive effect on BP (mice; [5]): significant hypotension at both doses
Time of recovery from hypotension after administration (mice; [5]): 1 to 2 h

CN1C(=O)CN=C(c2ccccc2)c2cc(Cl)ccc21 [DZP, diazepam]
Decrease of SBP from baseline (mice; DZP 1 mg/kg i.p.): 10–20%
Recovery time from hypotension (mice; DZP 1 mg/kg i.p.): 10 min
Hypotensive effect on BP, dose dependence (mice; DZP 1, 3, 10 mg/kg i.p.): led to hypotension in mice in a dose dependent manner
BP recovery at 24 h post treatment (mice; DZP 3 and 10 mg/kg i.p.): full recovery at 24 h post treatment
BP versus baseline at 5 and 6 h post DZP (mice; DZP 3 and 10 mg/kg i.p.): BP was still below baseline

CCC(=O)N1CCC(NC(=O)Nc2ccc(OC(F)(F)F)cc2)CC1 [TPPU]
Plasma elimination half-life ([1]; i.p. or oral administration): > 24 h
Increase of plasma EETs and EpOMEs [2]: 2–3 fold
Effect of TPPU on sudden drop in BP 5 min after DZP (mice; TPPU 3 mg/kg i.p. before DZP 3 and 10 mg/kg): did not prevent the sudden drop in BP
Recovery from DZP hypotension with TPPU versus DZP alone (mice; TPPU 3 mg/kg i.p. before DZP, P < 0.001): recovered significantly faster from hypotension
Efficacy of TPPU against hypotension at lowest DZP dose (mice; TPPU 3 mg/kg i.p., DZP 1 mg/kg): least effective
AUC of BP-time course, DZP plus TPPU versus DZP alone (mice; TPPU 3 mg/kg i.p., P < 0.05): significantly higher
Change in BP by TPPU alone or with DZP vehicle (without DZP) (mice; TPPU 3 mg/kg i.p., P = 0.56): did not elicit any significant changes
Efficacy of TPPU against midazolam induced hypotension (mice; TPPU 3 mg/kg i.p., midazolam 1.8 and 10 mg/kg, P = 0.004 at […]): effective only when administered with the low dose of midazolam
[TPPU] Brain [3, 6]: 32.8 ± 3.4 µM
[TPPU] Plasma [3, 6]: 11.8 ± 0.6 µM
[TPPU] Brain [3, 7]: 27.8 ± 2 µM
[TPPU] Plasma [3, 7]: 10 ± 0.3 µM

— PMC5328659 (Journal of clinical toxicology, 2016)
